Laboratory results from US20020137929A1, “1 - (3-heterocyclylphenyl) isothiourea, -isourea, -guanidine and -amidine herbicidal agents” (Intellectual Property Department, BASF Aktiengesellschaft, priority 1998, published 2002).

How the values were obtained:
ABUTH (Velvetleaf) = test: Postemergence herbicidal evaluation; type: in vivo, Abutilon theophrasti
Outline: (§1)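 Visual 0–9 rating versus control (stand, vigor, malformation, size, chlorosis, overall appearance), taken four to five weeks post-spray. Two-week-old seedlings received roughly 0.0156–0.500 kg/ha active in acetone/water (50/50) with 0.5% TWEEN 20 via nozzle at 40 psi.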

AMBEL (Ragweed, Common) = test: Postemergence herbicidal evaluation; type: in vivo, Ambrosia artemisifolia
Outline: as §1

ECHCG (Barnyardgrass) = test: Postemergence herbicidal evaluation; type: in vivo, Echinochloa crus-galli
Outline: as §1

SETVI (Foxtail, Green) = test: Postemergence herbicidal evaluation; type: in vivo, Setaria viridis
Outline: as §1

[1] = test system: GLXMAW (Soybean, Williams); test: Postemergence herbicidal evaluation; type: in vivo, Glycine max, (L.) Merr. cv Williams
Outline: as §1

ORYSAT (Rice, Tebonnet) = test: Postemergence herbicidal evaluation; type: in vivo, Oryza sativa, (L.) Tebonnet
Outline: as §1

[2] = test system: TRZAWR (Wheat, Winter, cv Riband); test: Postemergence herbicidal evaluation; type: in vivo, Triticum aestivum
Outline: as §1

MOOVA (Monochoria) = test: Preemergence weed control under flooded paddy conditions; type: in vivo, Monochoria vaginalis; settings: rated 3-4 weeks after treatment
Outline: (§2)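 Using flooded silt loam (water 1.5 to 3 cm deep), seeds sown in the top 0.5 cm were exposed preemergence to compound pipetted into the flood at about 0.0313 to 0.500 kg/ha. Effects were scored 0-9 by eye three to four weeks later.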

[3] = test system: SAGPY (Arrowhead (Pygmaea)); test: as above; type: in vivo, Sagittaria pygmaea; settings: rated 3-4 weeks after treatment
Outline: as §2

CYPIR (Rice Flatsedge) = test: Postemergence weed control under flooded paddy conditions; type: in vivo, Cyperus iria; settings: postemergence weeds, 3-4 weeks after treatment
Outline: (§3)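 Injury ratings (0–9 scale covering stand, vigor, malformation, size, chlorosis and overall appearance versus control) were made three to four weeks after treatment. Test material, about 0.0313 to 0.500 kg/ha a.i. in 50/50 v/v aqueous/acetone, was added to flood water 1.5 to 3 cm deep over 3 to 5 cm weeds and 1.5 to 2.5 leaf rice.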

[4] = test system: SAGPY (Arrowhead (Pygmaea)); test: as above; type: in vivo, Sagittaria pygmaea; settings: postemergence weeds, 3-4 weeks after treatment
Outline: as §3

In the case of “2-{{2-Chloro-5-[3,6-dihydro-3-methyl-2,6-dioxo-4-(trifluoromethyl)-1(2H)-pyrimidinyl]-4-fluoro-phenyl}imino}-4-oxo-3,5-thiazolidenediacetic acid, 3-ethyl (2-propynyl) ester, (2:1) mixture with di-2-propynyl ester [Compound 58]”, the “Postemergence herbicidal rating ABUTH” value (ABUTH (Velvetleaf); Rate 0.0158 kg/ha) is reported as 9.0, the “Postemergence herbicidal rating ABUTH” value (ABUTH (Velvetleaf); Rate 0.0315 kg/ha) is reported as 9.0 and the “Postemergence herbicidal rating ABUTH” value (ABUTH (Velvetleaf); Rate 0.0630 kg/ha) is reported as 9.0. The “Postemergence herbicidal rating AMBEL” value (AMBEL (Ragweed, Common); Rate 0.0158 kg/ha) was 9.0, the “Postemergence herbicidal rating AMBEL” value (AMBEL (Ragweed, Common); Rate 0.0315 kg/ha) was 9.0 and the “Postemergence herbicidal rating AMBEL” value (AMBEL (Ragweed, Common); Rate 0.0630 kg/ha) was 9.0. For the same substance, the “Postemergence herbicidal rating ECHCG” value (ECHCG (Barnyardgrass); Rate 0.0158 kg/ha) was 7.0, the “Postemergence herbicidal rating ECHCG” value (ECHCG (Barnyardgrass); Rate 0.0315 kg/ha) was 7.0 and the “Postemergence herbicidal rating ECHCG” value (ECHCG (Barnyardgrass); Rate 0.0630 kg/ha) was 9.0. For the same substance, the “Postemergence herbicidal rating SETVI” value (SETVI (Foxtail, Green); Rate 0.0158 kg/ha) was 9.0, the “Postemergence herbicidal rating SETVI” value (SETVI (Foxtail, Green); Rate 0.0315 kg/ha) was 9.0 and the “Postemergence herbicidal rating SETVI” value (SETVI (Foxtail, Green); Rate 0.0630 kg/ha) was 9.0. For the same substance, the “Postemergence herbicidal rating GLXMAW” value ([1]; Rate 0.0158 kg/ha) was 7.0, the “Postemergence herbicidal rating GLXMAW” value ([1]; Rate 0.0315 kg/ha) was 7.0 and the “Postemergence herbicidal rating GLXMAW” value ([1]; Rate 0.0630 kg/ha) was 8.5. The “Postemergence herbicidal rating ORYSAT” value (ORYSAT (Rice, Tebonnet); Rate 0.0158 kg/ha) was 5.5, the “Postemergence herbicidal rating ORYSAT” value (ORYSAT (Rice, Tebonnet); Rate 0.0315 kg/ha) was 5.5 and the “Postemergence herbicidal rating ORYSAT” value (ORYSAT (Rice, Tebonnet); Rate 0.0630 kg/ha) was 6.0. The “Postemergence herbicidal rating TRZAWR” value ([2]; Rate 0.0158 kg/ha) was 5.0, the “Postemergence herbicidal rating TRZAWR” value ([2]; Rate 0.0315 kg/ha) was 5.0 and the “Postemergence herbicidal rating TRZAWR” value ([2]; Rate 0.0630 kg/ha) was 7.5. The “MOOVA herbicidal effect rating” value (MOOVA (Monochoria); 0.0313 kg/ha) was 0.0, the “Herbicidal rating MOOVA” value (MOOVA (Monochoria); 0.0625 kg/ha) was 0.0 and the “Herbicidal rating MOOVA” value (MOOVA (Monochoria); 0.1250 kg/ha) was 3.0. For the same substance, the “Herbicidal rating MOOVA” value (MOOVA (Monochoria); 0.2500 kg/ha) was 9.0, the “SAGPY herbicidal effect rating” value ([3]; 0.0313 kg/ha) was 0.0 and the “Herbicidal rating SAGPY” value ([3]; 0.0625 kg/ha) was 0.0. For the same substance, the “Herbicidal rating SAGPY” value ([3]; 0.1250 kg/ha) was 0.0, the “Herbicidal rating SAGPY” value ([3]; 0.2500 kg/ha) was 4.0 and the “Herbicidal rating CYPIR” value (CYPIR (Rice Flatsedge); rate 0.0313 kg/ha) was 0.0. The “Herbicidal rating CYPIR” value (CYPIR (Rice Flatsedge); rate 0.0625 kg/ha) was 0.0, the “Herbicidal rating CYPIR” value (CYPIR (Rice Flatsedge); rate 0.1250 kg/ha) was 2.0 and the “Herbicidal rating CYPIR” value (CYPIR (Rice Flatsedge); rate 0.2500 kg/ha) was 3.0. For the same substance, the “Herbicidal rating SAGPY” value ([4]; rate 0.0313 kg/ha) was 0.0, the “Herbicidal rating SAGPY” value ([4]; rate 0.0625 kg/ha) was 0.0 and the “Herbicidal rating SAGPY” value ([4]; rate 0.1250 kg/ha) was 0.0. The “Herbicidal rating SAGPY” value ([4]; rate 0.2500 kg/ha) was 4.0.
